Measurements published in US12679805B2, “Bioactive substance exhibiting antimalarial activity, and use for same” (RIKEN, priority 2021, dated 2026).
Converted amounts (≈) assume the structure as drawn. “And” between values parts separate entries of the source, which are not always exact repeats. Identical values can stand only once.

Experiments:
[1] = tested on: wild-type Plasmodium falciparum (pf3D7 strain); assay: Antimalarial activity, pLDH Malstat analysis, wild-type Plasmodium falciparum (pf3D7 strain); assay type: cell-based
Protocol: Specifically, first, a wild-type malarial parasite, Plasmodium falciparum (pf3D7 strain) was cultured in a human type-A Rh+ erythrocyte-containing solution prepared such that the hematocrit level was 3% in a hypoxic condition (O2 concentration: 5%, CO2 concentration: 5%). A culture medium used herein was a complete medium (Gibco, RPMI 1640 medium) containing 25 mM N-(2-hydroxyethyl)piperazine-N′-2-ethanesulfonic acid (HEPES), 10 […] glucose, 5 μg/mL gentamicin and 10% bovine serum albumin. Thereafter, DHLC solutions having 16 different concentrations within the range of 0.015 nM to 500 nM as shown in Table 2 were prepared using dimethyl sulfoxide (DMSO). Subsequently, to each of the wells of a 96 well microplate, 100 μl of a culture solution containing Plasmodium falciparum (pf3D7 strain) cultured in accordance with a method as mentioned above, was added, and then, 0.5 μl of a DHLC solution different in concentration was added to each well. Three sample sets were prepared in the same manner by adding 16 DHLC solutions different in concentration to wells, and then, allowed to stand still at 37° C. for 72 hours to expose Plasmodium falciparum (pf3D7 strain) to DHLC. Note that, each well contains the complete medium (RPMI medium), and the malarial parasite concentration was 0.3% and hematocrit level was 2%. Thereafter, the 96 well microplates containing samples were frozen at −80° C. overnight, and then, thawed at room temperature to hemolyze red blood cells. Lactate dehydrogenase (pLDH), which is an intracellular metabolic enzyme of malarial parasite, in the samples contained in individual wells, was stained with a Malstat reagent (Flow Inc.) in accordance with the protocol of Malstat analysis (Am. J. Trop. Med. Hyg. 48(6), 1993, pp. 739-741) known in the art and the absorbance thereof was measured at 620 nm. Based on the results, the infection rates (%) of cells with malarial parasite, at different concentrations of DHLC were calculated. Note that, a positive control used herein was a sample prepared by adding a solution prepared by diluting an existing antimalarial drug, i.e., chloroquine diphosphate, with distilled water, to wild-type Plasmodium falciparum (pf3D7 strain). A negative control used herein was a sample prepared by adding a solution prepared by diluting DMSO with distilled water, to a wild-type Plasmodium falciparum (pf3D7 strain). For measuring a background value, an erythrocyte-containing solution not infected with Plasmodium falciparum, was used.

[2] = tested on: NB-1 cells; assay: Cytotoxicity (growth inhibitory activity), NB-1 cells; assay type: cell-based; details: Homo sapiens, NB1
Source text: (§1) Subsequently, the cytotoxicity of DHLC was examined. More specifically, the activity of DHLC to various types of cancer cells (Hela cells, HL-60 cells, MKN74 cells, NB-1 cells, T98G cells) were examined.

[3] = tested on: drug-resistant Plasmodium falciparum (K1); assay: Antimalarial activity against chloroquine-resistant Plasmodium falciparum (K1); assay type: cell-based; details: FIG. 1
[4] = tested on: T98G cells; assay: Cytotoxicity (growth inhibitory activity), T98G cells; assay type: cell-based
Source text: as §1

[5] = tested on: MKN74 cells; assay: Cytotoxicity (growth inhibitory activity), MKN74 cells; assay type: cell-based
Source text: as §1

[6] = tested on: Hela cells; assay: Cytotoxicity (growth inhibitory activity), HeLa cells; assay type: cell-based; details: for IC50: Homo sapiens
Source text: as §1

[7] = tested on: HL-60 cells; assay: Cytotoxicity (growth inhibitory activity), HL-60 cells; assay type: cell-based; details: for IC50: Homo sapiens
Source text: as §1

[8] = tested on: Plasmodium falciparum; details: reported in Non Patent Literature 1; cited from earlier work

**Q.** With `C\C=C(/C=C(C)/C=C/C=C/C=C(\C)C(=O)C1CC(O)(CCO)NC1=O)C(=O)OC` (stereo not drawn) [DHLC] as the compound, how does the “pf3D7(%) infection rate of cells with malarial parasite” value (“pf3D7(%) infection rate of cells” for short) ([1]; 0.015 nM, 72 hours) read?
**A.** 98.9%

**Q.** And the “pf3D7(%) infection rate of cells” value ([1]; 0.03 nM, 72 hours)?
**A.** 109.8%

**Q.** And the “pf3D7(%) infection rate of cells” value ([1]; 0.06 nM, 72 hours)?
**A.** 89.4%

**Q.** And the “pf3D7(%) infection rate of cells” value ([1]; 0.12 nM, 72 hours)?
**A.** 92.9%

**Q.** What about the “pf3D7(%) infection rate of cells” value ([1]; 0.24 nM, 72 hours) of the same compound?
**A.** 77.2%

**Q.** And the “pf3D7(%) infection rate of cells” value ([1]; 0.49 nM, 72 hours)?
**A.** 74.1%

**Q.** And the “pf3D7(%) infection rate of cells” value ([1]; 0.98 nM, 72 hours)?
**A.** 41.7%

**Q.** What about the “pf3D7(%) infection rate of cells” value ([1]; 1.95 nM, 72 hours) of the same compound?
**A.** 28.2%

**Q.** And the “pf3D7(%) infection rate of cells” value ([1]; 3.90 nM, 72 hours)?
**A.** 22.9%

**Q.** What about the “pf3D7(%) infection rate of cells” value ([1]; 7.81 nM, 72 hours) of the same compound?
**A.** 23.7%

**Q.** And the “pf3D7(%) infection rate of cells” value ([1]; 15.63 nM, 72 hours)?
**A.** 13.3%

**Q.** What about the “pf3D7(%) infection rate of cells” value ([1]; 31.25 nM, 72 hours) of the same compound?
**A.** 9.6%

**Q.** What about the “pf3D7(%) infection rate of cells” value ([1]; 62.5 nM, 72 hours) of the same compound?
**A.** 14.3%

**Q.** What about the “pf3D7(%) infection rate of cells” value ([1]; 125 nM, 72 hours) of the same compound?
**A.** 10.2%

**Q.** And the “pf3D7(%) infection rate of cells” value ([1]; 250 nM, 72 hours)?
**A.** 8.5%

**Q.** What about the “pf3D7(%) infection rate of cells” value ([1]; 500 nM, 72 hours) of the same compound?
**A.** 13.9%

**Q.** What about the IC50 ([1]; Plasmodium falciparum, pf3D7 strain, 72 hours, read-out: growth inhibitory activity (IC50 value)) of the same compound?
**A.** 0.65 nM and 0.00026 µg/mL

**Q.** And the “antimalarial activity relative to NG-391” value ([1]; versus NG-391 IC50=0.75 μg/ml)?
**A.** ≥ 1000 times

**Q.** What about the “antimalarial activity relative to lucilactaene” value ([1]; versus lucilactaene IC50=0.063 μg/ml) of the same compound?
**A.** ≥ 100 times

**Q.** What about the IC50 [2] of the same compound?
**A.** 0.34 µg/mL (≈ 0.843 µM)

**Q.** And the “antimalarial activity against drug-resistant Plasmodium falciparum (K1)” value [3]?
**A.** as high as against wild-type Plasmodium falciparum

**Q.** What about the “growth inhibitory activity (IC50 value)” value [4] of the same compound?
**A.** >30 µg/mL

**Q.** What about the IC50 ([4]; Homo sapiens) of the same compound?
**A.** > 30 µg/mL

**Q.** What about the “growth inhibitory activity (IC50 value)” value [5] of the same compound?
**A.** >30 µg/mL

**Q.** What about the IC50 ([5]; Homo sapiens, MKN-74) of the same compound?
**A.** > 30 µg/mL

**Q.** And the IC50 [6]?
**A.** 21 µg/mL (≈ 52 µM)

**Q.** What about the IC50 [7] of the same compound?
**A.** 3.4 µg/mL (≈ 8.43 µM)

**Q.** For `C\C=C(/C=C(C)/C=C/C=C/C=C(\C)C(=O)[C@H]1C(=O)N[C@]2(O)CCO[C@H]12)C(=O)O` [Demethyl lucilactaene], which “growth inhibitory activity (IC50 value)” value [6] is on record?
**A.** >30 µg/mL

**Q.** And the “growth inhibitory activity (IC50 value)” value [7]?
**A.** >30 µg/mL

**Q.** Which “antimalarial activity IC50” value [8] does the source give for `C\C=C(/C=C(C)/C=C/C=C/C=C(\C)C(=O)[C@H]1C(=O)N[C@]2(O)CCO[C@H]12)C(=O)OC` [Lucilactaene] here?
**A.** 0.063 µg/mL

**Q.** What about the “antimalarial effect relative to NG-391” value [8] of the same compound?
**A.** about 12 times

**Q.** And the IC50 [6]?
**A.** 10 µg/mL (≈ 24.9 µM)

**Q.** And the IC50 [7]?
**A.** 7 µg/mL (≈ 17.4 µM)

**Q.** What does the source list for `C\C=C(/C=C(C)/C=C/C=C/C=C(\C)C(=O)[C@]12O[C@H]1C(O)(CCO)NC2=O)C(=O)OC` (stereo partly drawn) [NG-391]?
**A.** antimalarial activity IC50 [8]: 0.75 µg/mL; IC50 [6]: 5.9 µg/mL (≈ 14.1 µM); IC50 [7]: 6.6 µg/mL (≈ 15.8 µM)
